Source: US20250214986A1, “P2X3 INHIBITOR COMPOUND, SALT THEREOF, POLYMORPH THEREOF AND USE THEREOF” (HUMANWELL HEATHCARE (GROUP) CO., LTD., priority 2022, published 2025)
Where a name gives a salt, the structure may show the parent alone. Each block holds one molecule with its values, some of them ahead of it.

Experiments:
Type in all cases: physicochemical
[1] = Dynamic solubility experiment at 37° C.
Protocol: In the test, the purity, dynamic solubility and stability were tested using an Agilent 1260 high-performance liquid chromatograph, the molar ratio of salt-forming ions was tested using ion chromatography, and the analytical conditions are shown in Tables A-4 and A-5 below.
Solids at a feeding concentration of 10 mg/mL (calculated based on free base) were rotationally mixed with corresponding vehicles at 37° C. […] After sampling at each time point, the samples were centrifuged (at 10000 rpm) and filtered (through a 0.45 μm PTFE filter head). The HPLC concentrations and pH values of the filtrates were determined.
100.2 mg of NaCl and 50.3 mg of Triton X-100 were weighed into a 50 mL volumetric flask and then completely dissolved by addition of purified water. 816 μL of 1 M hydrochloric acid was added, and the pH was adjusted to 1.8 with 1 M hydrochloric acid or 1 M NaOH solution. The mixed solution was brought to the volume by addition of purified water.
170.5 mg of anhydrous NaH2PO4, 22.2 mg of NaOH, and 310.9 mg of NaCl were weighed into a 50 mL volumetric flask and then completely dissolved by addition of purified water. The pH was adjusted to 6.5 with 1 M hydrochloric acid or 1 M NaOH solution. The mixed solution was brought to the volume by addition of purified water. Subsequently, 55.1 mg of SIF powder was weighed into a 25 mL volumetric flask and completely dissolved with the above solution, and the mixed solution was brought to the volume.
0.21 mL of glacial acetic acid, 101.6 mg of NaOH, and 295.4 mg of NaCl were added into a 25 mL volumetric flask and then completely dissolved by addition of about 20 mL of purified water. The pH was adjusted to 5.0 with 1 M hydrochloric acid or 1 M NaOH solution. The mixed solution was brought to the volume by addition of purified water, and then 280.8 mg of SIF powder was weighed into the flask and completely dissolved.

[2] = Hygroscopicity by dynamic vapor sorption (DVS); settings: for crystalline form after DVS test: 0% RH to 95% RH to 0% RH; for vapor sorption / hygroscopicity: 25° C./80% RH; for hygroscopicity: DVS
Protocol: Dynamic vapor sorption (DVS) curves were acquired on a DVS IntrInsic from Surface Measurement Systems (SMS). The relative humidity at 25° C. was corrected with the deliquescence points of LiCl, Mg(NO3)2, and KCl.
Starting at 0% RH, the test acquired the percentage changes in mass of the samples when the humidity changed (0% RH to 95% RH to 0% RH) at a constant temperature of 25° C.

[3] = Solid state stability (XRPD and HPLC); settings: for change of HPLC purity after placement under the corresponding conditions: 60° C. sealed 1 day, 25° C./60% RH and 40° C./75% RH uncovered 1 week/1 month
Protocol: In the test, the purity, dynamic solubility and stability were tested using an Agilent 1260 high-performance liquid chromatograph, the molar ratio of salt-forming ions was tested using ion chromatography, and the analytical conditions are shown in Tables A-4 and A-5 below. [table]

[4] = 25° C./60% RH/uncovered, 1 week
[5] = 40° C./75% RH/uncovered, 1 week
[6] = 25° C./60% RH/uncovered, 1 month
[7] = 40° C./75% RH/uncovered, 1 month

Crystalline form change ([1]; FaSSIF, 1 h): Yes^a
S: solubility ([1]; FaSSIF, 1 h): 9 µg/mL
pH of filtrate ([1]; FaSSIF, 1 h): 5.2
Crystalline form change ([1]; FaSSIF, 4 h): Yes^a
S: solubility ([1]; FaSSIF, 4 h): 9 µg/mL
pH of filtrate ([1]; FaSSIF, 4 h): 5.2
Crystalline form change ([1]; FaSSIF, 24 h): Yes^a
S: solubility ([1]; FaSSIF, 24 h): 14 µg/mL
pH of filtrate ([1]; FaSSIF, 24 h): 5.2
Crystalline form change ([1]; FeSSIF, 1 h): Yes^a
S: solubility ([1]; FeSSIF, 1 h): 30 µg/mL
pH of filtrate ([1]; FeSSIF, 1 h): 4.9
Crystalline form change ([1]; FeSSIF, 4 h): Yes^a
S: solubility ([1]; FeSSIF, 4 h): 27 µg/mL
pH of filtrate ([1]; FeSSIF, 4 h): 4.9
Crystalline form change ([1]; FeSSIF, 24 h): Yes^a
S: solubility ([1]; FeSSIF, 24 h): 23 µg/mL
pH of filtrate ([1]; FeSSIF, 24 h): 4.9
Crystalline form change ([1]; H2O, 1 h): Yes^a
S: solubility ([1]; H2O, 1 h): 4 µg/mL
pH of filtrate ([1]; H2O, 1 h): 2.1
Crystalline form change ([1]; H2O, 4 h): Yes^a
S: solubility ([1]; H2O, 4 h): 3 µg/mL
pH of filtrate ([1]; H2O, 4 h): 2.1
Crystalline form change ([1]; H2O, 24 h): Yes^a
S: solubility ([1]; H2O, 24 h): 4 µg/mL
pH of filtrate ([1]; H2O, 24 h): 2.1
solubility at 24 h ([1]; SGF, 37 °C, pH 1.8, simulated gastric fluid, thermodynamic from solid, SGF, 24 h, read-out: S: solubility): 11 µg/mL
Crystalline form change ([1]; SGF, 1 h): Yes^a
S: solubility ([1]; SGF, 1 h): 14 µg/mL
pH of filtrate ([1]; SGF, 1 h): 1.6
Crystalline form change ([1]; SGF, 4 h): Yes^a
S: solubility ([1]; SGF, 4 h): 11 µg/mL
pH of filtrate ([1]; SGF, 4 h): 1.6
Crystalline form change ([1]; SGF, 24 h): Yes^a
pH of filtrate ([1]; SGF, 24 h): 1.6
crystalline form after DVS test ([2]; 25° C.): remained unchanged
vapor sorption [2]: about 0.49%
hygroscopicity [2]: slight hygroscopicity
HPLC Purity (area %) [3, 4]: 99.57 area %
HPLC purity Relative to starting (%) [3, 4]: 99.98%
HPLC Purity (area %) [3, 5]: 99.58 area %
HPLC purity Relative to starting (%) [3, 5]: 99.99%
change of HPLC purity after placement under the corresponding conditions [3]: no significant change
HPLC Purity (area %) ([3]; 60° C./sealed, 1 day): 99.58 area %
HPLC purity Relative to starting (%) ([3]; 60° C./sealed, 1 day): 99.99%
HPLC Purity (area %) ([3]; Starting): 99.59 area %
Compound: Cc1cnc(-c2cc(O[C@@H](C)[C@@H](C)O)cc(C(=O)N[C@H](C)c3cnc(C(F)(F)F)nc3)c2F)s1 [Crystalline form A of hydrochloride]

Crystalline form change ([1]; FaSSIF, 1 h): Yes^a
S: solubility ([1]; FaSSIF, 1 h): 6 µg/mL
pH of filtrate ([1]; FaSSIF, 1 h): 4.9
Crystalline form change ([1]; FaSSIF, 4 h): Yes^a
S: solubility ([1]; FaSSIF, 4 h): 7 µg/mL
pH of filtrate ([1]; FaSSIF, 4 h): 4.7
Crystalline form change ([1]; FaSSIF, 24 h): Yes^a
S: solubility ([1]; FaSSIF, 24 h): 7 µg/mL
pH of filtrate ([1]; FaSSIF, 24 h): 4.5
Crystalline form change ([1]; FeSSIF, 1 h): Yes^a
S: solubility ([1]; FeSSIF, 1 h): 20 µg/mL
pH of filtrate ([1]; FeSSIF, 1 h): 4.9
Crystalline form change ([1]; FeSSIF, 4 h): Yes^a
S: solubility ([1]; FeSSIF, 4 h): 20 µg/mL
pH of filtrate ([1]; FeSSIF, 4 h): 4.9
Crystalline form change ([1]; FeSSIF, 24 h): Yes^a
S: solubility ([1]; FeSSIF, 24 h): 21 µg/mL
pH of filtrate ([1]; FeSSIF, 24 h): 4.9
solubility in H2O compared with the other forms ([1]; H2O): highest solubility in H2O
Crystalline form change ([1]; H2O, 1 h): Yes^a
S: solubility ([1]; H2O, 1 h): 7 µg/mL
pH of filtrate ([1]; H2O, 1 h): 2.3
Crystalline form change ([1]; H2O, 4 h): Yes^a
S: solubility ([1]; H2O, 4 h): 7 µg/mL
pH of filtrate ([1]; H2O, 4 h): 2.3
Crystalline form change ([1]; H2O, 24 h): Yes^a
S: solubility ([1]; H2O, 24 h): 8 µg/mL
pH of filtrate ([1]; H2O, 24 h): 2.2
Crystalline form change ([1]; SGF, 1 h): Yes^a
S: solubility ([1]; SGF, 1 h): 10 µg/mL
pH of filtrate ([1]; SGF, 1 h): 1.7
Crystalline form change ([1]; SGF, 4 h): Yes^a
S: solubility ([1]; SGF, 4 h): 10 µg/mL
pH of filtrate ([1]; SGF, 4 h): 1.7
Crystalline form change ([1]; SGF, 24 h): Yes^a
S: solubility ([1]; SGF, 24 h): 9 µg/mL
pH of filtrate ([1]; SGF, 24 h): 1.7
crystalline form after DVS test ([2]; 25° C.): remained unchanged
vapor sorption when the humidity was more than 80% RH ([2]; 25° C., more than 80% RH): rapid vapor sorption
vapor sorption [2]: about 0.41%
hygroscopicity [2]: slight hygroscopicity
HPLC Purity (area %) [3, 4]: 99.71 area %
HPLC purity Relative to starting (%) [3, 4]: 100.00%
HPLC Purity (area %) [3, 5]: 99.65 area %
HPLC purity Relative to starting (%) [3, 5]: 99.94%
change of HPLC purity after placement under the corresponding conditions [3]: no significant change
HPLC Purity (area %) ([3]; 60° C./sealed, 1 day): 99.60 area %
HPLC purity Relative to starting (%) ([3]; 60° C./sealed, 1 day): 99.89%
HPLC Purity (area %) ([3]; Starting): 99.71 area %
Compound: Cc1cnc(-c2cc(O[C@@H](C)[C@@H](C)O)cc(C(=O)N[C@H](C)c3cnc(C(F)(F)F)nc3)c2F)s1 [Crystalline form A of maleate]

S: solubility ([1]; FaSSIF, 1 h): 28 µg/mL
pH of filtrate ([1]; FaSSIF, 1 h): 2.6
Crystalline form change ([1]; FaSSIF, 4 h): Yes^a′
S: solubility ([1]; FaSSIF, 4 h): 13 µg/mL
pH of filtrate ([1]; FaSSIF, 4 h): 2.6
Crystalline form change ([1]; FaSSIF, 24 h): Yes^a′
S: solubility ([1]; FaSSIF, 24 h): 6 µg/mL
pH of filtrate ([1]; FaSSIF, 24 h): 2.6
S: solubility ([1]; FeSSIF, 1 h): 95 µg/mL
pH of filtrate ([1]; FeSSIF, 1 h): 4.8
S: solubility ([1]; FeSSIF, 4 h): 81 µg/mL
pH of filtrate ([1]; FeSSIF, 4 h): 4.8
Crystalline form change ([1]; FeSSIF, 24 h): Yes^a′
S: solubility ([1]; FeSSIF, 24 h): 28 µg/mL
pH of filtrate ([1]; FeSSIF, 24 h): 4.8
Crystalline form change ([1]; H2O, 1 h): Yes^a
S: solubility ([1]; H2O, 1 h): 6 µg/mL
pH of filtrate ([1]; H2O, 1 h): 1.8
Crystalline form change ([1]; H2O, 4 h): Yes^a
S: solubility ([1]; H2O, 4 h): 5 µg/mL
pH of filtrate ([1]; H2O, 4 h): 1.8
Crystalline form change ([1]; H2O, 24 h): Yes^a
S: solubility ([1]; H2O, 24 h): 5 µg/mL
pH of filtrate ([1]; H2O, 24 h): 1.8
S: solubility ([1]; SGF, 1 h): 37 µg/mL
pH of filtrate ([1]; SGF, 1 h): 1.5
Crystalline form change ([1]; SGF, 4 h): Yes^a+b′
S: solubility ([1]; SGF, 4 h): 33 µg/mL
pH of filtrate ([1]; SGF, 4 h): 1.5
Crystalline form change ([1]; SGF, 24 h): Yes^a′
S: solubility ([1]; SGF, 24 h): 12 µg/mL
pH of filtrate ([1]; SGF, 24 h): 1.5
1-hour solubility in the three biological vehicles other than H2O compared with the other forms ([1]; SGF, FaSSIF, FeSSIF, 1 h): highest 1-hour solubility
crystalline form after DVS test ([2]; 25° C.): remained unchanged
vapor sorption [2]: about 0.12%
hygroscopicity [2]: almost no hygroscopicity
HPLC Purity (area %) [3, 6]: 99.92 area %
HPLC purity Relative to starting (%) [3, 6]: 100.00%
HPLC Purity (area %) [3, 4]: 99.92 area %
HPLC purity Relative to starting (%) [3, 4]: 100.00%
HPLC Purity (area %) [3, 7]: 99.92 area %
HPLC purity Relative to starting (%) [3, 7]: 100.00%
HPLC Purity (area %) [3, 5]: 99.92 area %
HPLC purity Relative to starting (%) [3, 5]: 100.00%
change of HPLC purity after placement under the corresponding conditions [3]: no significant change
HPLC Purity (area %) ([3]; 60° C./sealed, 1 day): 99.92 area %
HPLC purity Relative to starting (%) ([3]; 60° C./sealed, 1 day): 100.00%
HPLC Purity (area %) ([3]; Starting): 99.92 area %
Compound: Cc1cnc(-c2cc(O[C@@H](C)[C@@H](C)O)cc(C(=O)N[C@H](C)c3cnc(C(F)(F)F)nc3)c2F)s1 [Crystalline form A of p-toluenesulfonate]
Crystalline form change ([1]; FaSSIF, 1 h): Yes^b′ (transformed to free base crystalline form B + additional diffraction peaks)
Crystalline form change ([1]; FeSSIF, 1 h): Yes^b′ (transformed to free base crystalline form B + additional diffraction peaks)
Crystalline form change ([1]; FeSSIF, 4 h): Yes^b (transformed to free base crystalline form B)
Crystalline form change ([1]; SGF, 1 h): Yes^b′ (transformed to free base crystalline form B + additional diffraction peaks)
